What was measured:
[1] = for mass density: 101.33 kPa
[2] = Molar enthalpy of transition or fusion; conditions: DSC

NC(=O)CN1CCCC1=O [2-oxo-1-pyrrolidineacetamide]
[1]
Conditions	Triple point temperature [K]	mass density [kg/m3]	molar volume [m3/mol]
300 K, Crystal 2, X-ray diffraction	–	1373	0.0001036
310 K, Crystal 2, X-ray diffraction	–	–	0.0001031
320 K, Crystal 2, X-ray diffraction	–	–	0.0001039
330 K, Crystal 2, X-ray diffraction	–	–	0.0001036
340 K, Crystal 2, X-ray diffraction	–	–	0.0001042
350 K, Crystal 2, X-ray diffraction	–	–	0.0001042
360 K, Crystal 2, X-ray diffraction	–	–	0.0001047
370 K, Crystal 1, X-ray diffraction	–	–	0.0001104
370 K, Crystal 2, X-ray diffraction	–	–	0.0001049
375 K, Crystal 1, X-ray diffraction	–	–	0.0001105
380 K, Crystal 1, X-ray diffraction	–	–	0.0001106
385 K, Crystal 1, X-ray diffraction	–	–	0.0001108
390 K, Crystal 1, X-ray diffraction	–	–	0.0001108
395 K, Crystal 1, X-ray diffraction	–	–	0.000111
400 K, Crystal 1, X-ray diffraction	–	1281	0.000111
405 K, Crystal 1, X-ray diffraction	–	–	0.0001112
410 K, Crystal 1, X-ray diffraction	–	–	0.0001112
Metastable crystal, DSC	365.05	–	–
Metastable crystal, X-ray diffraction	360.15	–	–

[1]
Conditions	mass density [kg/m3]	molar volume [m3/mol]
300 K, Metastable crystal, X-ray diffraction	1365	0.0001042
310 K, Metastable crystal, X-ray diffraction	–	0.0001044
320 K, Metastable crystal, X-ray diffraction	–	0.0001045
330 K, Metastable crystal, X-ray diffraction	–	0.0001049
340 K, Metastable crystal, X-ray diffraction	–	0.0001051
350 K, Metastable crystal, X-ray diffraction	–	0.0001054
355 K, Metastable crystal, X-ray diffraction	–	0.0001054
360 K, Metastable crystal, X-ray diffraction	–	0.0001055
423 K, Liquid, Vibrating tube method	–	0.0001228
428 K, Liquid, Vibrating tube method	–	0.0001232
433 K, Liquid, Vibrating tube method	–	0.0001235
438 K, Liquid, Vibrating tube method	–	0.0001239
443 K, Liquid, Vibrating tube method	–	0.0001241
448 K, Liquid, Vibrating tube method	–	0.0001245
453 K, Liquid, Vibrating tube method	–	0.0001248
458 K, Liquid, Vibrating tube method	–	0.0001252
463 K, Liquid, Vibrating tube method	–	0.0001255
468 K, Liquid, Vibrating tube method	–	0.0001259
473 K, Liquid, Vibrating tube method	–	0.0001262

Conditions	Molar enthalpy of transition or fusion, Crystal 1 [kcal/mol]	Molar enthalpy of transition or fusion, Metastable crystal [kcal/mol]	Triple point temperature, Crystal 1, DSC [K]	Triple point temperature, Crystal 2, X-ray diffraction [K]
[1]	–	–	422.95	370.15
[2]	6.35	0.843	–	–

Reference: the NIST ThermoML archive (doi:10.1016/j.jct.2016.01.016)
